Measurements from publication PMC9014415, “Repositioning of a Diaminothiazole Series Confirmed to Target the Cyclin-Dependent Kinase CRK12 for Use in the Treatment of African Animal Trypanosomiasis” (Journal of Medicinal Chemistry, 2022).

Tested on: T. vivax (STIB719)
Assay: Cattle efficacy for compound 2, intravenous infusion (Clinvet), T. vivax
Type: in vivo, Trypanosoma vivax
Conditions: Friesian-Holstein cattle infected with T. vivax; n = 4; at 100 days
Protocol: Unfortunately, an injection site tolerability issue arose during the pharmacokinetic study in cattle that was not evident in rats. […] To circumvent these issues, compound 2 was assessed in an in vivo proof of concept efficacy study in Friesian-Holstein cattle using an IV infusion regimen. The study was conducted in four animals infected with T. congolense (KONT2/133) and four animals infected with T. vivax (STIB719). Three additional animals infected with each strain formed the vehicle control groups and were dosed IV once daily with saline. Pharmacokinetic modeling was used to define a dosing regimen that mimics the blood concentration–time profile that delivered cure in mice (10 mg/kg SC once daily for 2 days, with a Ctrough of >20 ng/mL (>38 nM)). A continuous infusion over 36 h and two loading doses 24 h apart were required. […]
Response to treatment was determined by monitoring parasitaemia twice a week until day 21. […]
In each of the cattle efficacy studies (3.3, 3.4 and 3.5), efficacy was assessed primarily on absence of recrudescence of parasitaemia for 100 days after treatment administration together with improvements in Packed Cell Volume, body weight and clinical signs of infected compared with uninfected animals. […]

## CC(C)CS(=O)(=O)N[C@H]1CC[C@H](Nc2nc(N)c(C(=O)c3c(F)cc(CN(C)C)cc3F)s2)CC1 [Compound 2, N-(trans)-[4-[[4-Amino-5-[4-(dimethylaminomethyl)-2,6-difluoro-benzoyl]thiazol-2-yl]amino]cyclohexyl]-2-methyl-propane-1-sulfonamide]
  Efficacy in cattle, IV bolus and infusion: cured
